Test [1] has as its target TERRA. The test is described as follows: FP assay, compound binding to 5′ fluorescein-labeled TERRA. The following applies: 10 nM fluorescein-labeled probe, 3 independent experiments. The protocol:
(§1) All the nucleic acids, peptides and chemicals were dissolved in buffer containing 20 mM HEPES pH7.5, 150 mM salt (KCl, NaCl, LiCl) at the stock concentration of 1 mM. For peptide and nucleic acid interactions, 25μL of each nucleic acids with a sequential twofold dilutions starting from 50 μM was added into each well of 96-well plate followed by adding 25μL of 10 nM FITC labeled TRF2 peptide. For compounds and nucleic acid interactions, 20μL of each compounds with a sequential twofold dilutions starting from 50 μM were added into each well of 96-well plate followed by adding 5μL of 20 ng/mL tRNA and 25μL of 10 nM FAM labeled nucleic acids. For inhibition assay, 5μL FITC labeled TRF2 GAR peptide (10 nM final concentration) and 10 μL oligos (5 μM final concentration) were mixed, followed by adding 5μL of each compound with a sequential twofold dilutions starting from 50 μM into each well of 384-well plate. All components were mixed thoroughly, and the plate was incubated at room temperature for 1 h before placing in an Envision Plate Reader for reading at 495/520 nm. All data curves were fitted using Prism 8.0.

Test [2] has as its system TERRA. As to the kind of experiment: CD spectroscopy of TERRA mixed with compound. The following applies: 1:1 molar ratio, 150 mM KCl buffer. The protocol: All nucleic acids were dissolved in buffer containing 20 mM HEPES pH7.5, 150 mM salt (KCl or LiCl), 20% PEG8000 at the concentration of 10 μM for experiments. A J-815 spectrometer equipped with a PFD-425S Peltier cell holder was used to measure CD spectra at 4 °C between 200 and 340 nm to determine the secondary structure content of various oligo constructs. The molar ellipticity was calculated and the plot was made using Excel.

In another test the target is TeloDNA and TRF2 complex. The test is described as follows: FP inhibition assay, TRF2 GAR binding to TeloDNA. The following applies: 10 nM peptide, 5 μM oligo. The procedure: as §1
Test [3] has as its system TRF2 binding to telomere DNA. As to the kind of experiment: DNA ChIP assay of TRF2 binding to telomere DNA in LOX cells. It counts as cell-based, human. The following applies: 2 μM, 2 days. The protocol:
The lysates were sonicated, cleared by centrifugation, and supernatants were diluted 10 fold into IP Buffer (0.01% SDS, 1.1% Triton X-100, 1.2mM EDTA, 16.7mM Tris pH 8.1, 167mM NaCl, protease inhibitors cocktail, 50U/ml SUPERase•in) for IP reaction with rabbit IgG (Santa Cruz Biotechnology) or rabbit polyclonal anti-TRF2 (Pocono Rabbit Farm) at 4 ° C overnight. Each immune complex was collected by Dynal A beads (Invitrogen), washed five times (1 ml wash, 10 mins each) in ChIP related wash buffer at 4 ° C, eluted by addition of 200µl Elution buffer (10mM Tris, pH 8.0, 5mM EDTA, 1% SDS, 50U/ml SUPERase.In) at 70 °C for 20 mins, and the elutes were placed at 70 °C for 2 hrs to reverse cross-linking. […]
DNA ChIP assays was performed as described previously 3 with minor modifications. Briefly, 1 x 10^7 LOX cells treated with indicated chemicals (2 µM) for 48 hrs were subject to ChIP analysis and immunoprecipitated DNA was assayed by DNA dot-blot using 32P-labeled (TTAGGG)4 or Alu probe. […]

For test [4], the system named is telomere repeat DNA in LOX cells. The test is described as follows: Telomere length analysis (PFGE, Southern blot) of LOX cells. The following applies: for telomere repeat DNA signals: TLA. Format: cell-based, human. The protocol:
Genomic DNA was isolated from cells using a genomic DNA purification kit (Promega) and digested with AluI and MboI. Digested genomic DNA was purified by phenol/choloroform extraction and quantified using a Qubit 4 Fluorometer (Thermal Scientific). Equal amounts of digested DNA (5 μg) were separated by pulse-field gel electrophoresis (PFGE) performed with a 1% agarose gel at 6V/cm, switch times from 1 to 12s, 15 °C for 12h using CHEF-DRIII system (Bio-Rad). The DNA was transferred to GeneScreen Plus blotting membranes (Perkin-Elmer) and analyzed by Southern blot. The blots were hybridized with a 32P-labeled telomere repeat or […]
Alu probe at 42 °C overnight, then washed twice for 5 min each with 0.2 M wash buffer (0.2 M Na2HPO4 pH 7.2, 1 mM EDTA, and 2% SDS) at room temperature and once for 10 min with 0.1 M wash buffer at 42°C. Relative telomere-repeat signals were determined by Typhoon 9410 Imager and ImageQuant TL software (GE Healthcare). Signal intensity represents the percentage decrease of average telomere signals relative to dox (-) or PP control. […]
100, 1 mM EDTA in 1x PBS) before immuno-staining. Primary antibodies were prepared in blocking solution at following dilutions: anti-53BP1 (1:500, IHC-00001; Bethyl Laboratories) and γH2AX (1:2,000, A300-081A; Bethyl Laboratories). After IF, cells were fixed in 4% paraformaldehyde in 1x PBS for 10 min, washed in 1x PBS, dehydrated in ethanol series (70%, 95%, 100%), and air-dried. Coverslips were denatured for 5 min at 80-85° C in hybridization mix [70% formamide, 10 mM Tris-HCl, pH 7.2, and 0.5% blocking solution (Roche)] containing telomeric PNA-Cy3-(CCCTAA)3 probe, and hybridization was continued for 2 hrs at room temperature in the dark moisturized chambers. Coverslips were washed twice for 15 min each with 70% formamide, 10 mM Tris-HCl (pH 7.2), and 0.1% BSA, and followed by three washes for 5 min each with 0.15 M NaCl, 0.1 M Tris-HCl (pH 7.2), and 0.08% Tween-20. Nuclei were counterstained with 0.1 µg/ml DAPI in blocking solution and coverslips mounted with VectorShield (Vector Laboratories). RNA FISH was performed as previously described 1.
Images were captured with a 100x lens on a Nikon E600 Upright microscope (Nikon

Test [5] has as its system TERRA (5'-fluorescein) (RNA, G4) UUAGGGUUAGGGUUAGGGUUAGGG
As to the kind of experiment: fluorescence polarization. The following applies: 150 mM KCl, NaCl or LiCl (salt not specified); 20 mM HEPES; 20 mM HEPES pH 7.5, room temperature, tRNA competitor added, 10 nM probe; apparent.

The subject of test [6] is TERRA antisense (5'-fluorescein) (RNA, single strand) CCCUAACCCUAACCCUAACCCUAA
The test is described as follows: fluorescence polarization. The following applies: 150 mM salt (KCl, NaCl or LiCl; which not stated); 20 mM HEPES pH 7.5, room temperature, tRNA competitor; dilutions from 50 μM compound.

Test [7] deals with TERRA (unlabelled) (RNA, G4) UUAGGGUUAGGGUUAGGGUUAGGG
As to the kind of experiment: fluorescence polarization, displacement of TRF2 GAR peptide. The following applies: 150 mM KCl, NaCl or LiCl (salt not specified); 20 mM HEPES; 20 mM HEPES pH 7.5, room temperature; FITC-TRF2 GAR peptide 10 nM displaced; 5 μM oligo. For orientation: In fluorescence polarisation assays a small probe gives low polarisation when free and higher when bound to something large.

Molecules are shown by their SMILES.

Data on 2 compounds can be found in article PMC7876106 (Scientific Reports, 2021).

Usually EC50 stands for the concentration at which the effect is half-maximal. What is called IC50 is the concentration that gives 50% inhibition. For `CN(C)c1ccc(Nc2c3ccc(NC(=O)CCN4CCCC4)cc3nc3cc(NC(=O)CCN4CCCC4)ccc23)cc1` [BRACO-19], the EC50 (on TERRA [1]; in test [5]) was 7.4 µM throughout. In addition, the “alteration of CD spectrum of TERRA at major peak (~260 nm)” value with TERRA [2] is recorded as “not BRACO-19 or PP altered the CD spectrum”. Also, the IC50 at TeloDNA and TRF2 complex is 0.04 µM; in test [7], 0.24 µM. The “effect on TRF2 binding to telomere DNA” value in test [3] was “Neither NMM, PP, nor BRACO-19 had any significant effect”. For the same compound, the “telomere repeat DNA signals” value in test [4] is recorded as “to a lesser extent”. Moreover, in test [6], the binding entry is “no”.

Regarding `CCc1c(C)c2cc3nc(cc4nc(cc5c(CC)c(C)c(cc1[nH]2)n5C)C(C)=C4CCC(=O)O)C(CCC(=O)O)=C3C` [NMM, N-methyl mesoporphyrin IX], the EC50 (on TERRA [1]; in test [5]) was 0.68 µM in each case. Besides, the “alteration of CD spectrum of TERRA at major peak (~260 nm)” value in the test with TERRA [2] is on record as “altered the CD spectrum of TERRA”. The 50% inhibitory concentration (IC50) stood at 1 µM on TeloDNA and TRF2 complex; 0.42 µM in test [7]. Moreover, in test [3], the “effect on TRF2 binding to telomere DNA” value is “Neither NMM, PP, nor BRACO-19 had any significant effect”. The average telomere length entry in test [4] (2 μM, 2 and 3 days) is “decrease in average telomere length”. Also, the “telomere repeat DNA signals” value in test [4] is listed as “reduced telomere repeat DNA signals”. For the same compound, the binding result in test [6] is reported as “no”.
